pIC50: −log10 of the molar value.
Target: P. falciparum apicoplast DNA polymerase (Pf-apPOL) (Plasmodium falciparum, UniProt Q8ILY1)
Assay: Fluorescence-based high-throughput DNA polymerase assay (molecular beacon), primary screen and dose-response;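 for % inhibition ApPOL 90': test concentration in µM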;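 for % inhibition apPOL 180': test concentration in µM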
Type: biochemical
Conditions: for DNA Pol: 90 min, 10 µM
Summary of the method: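 Single-point screening used 10 µM compound with 20 nM polymerase, 20 nM hairpin substrate and 6 µM dNTPs for 90 min at 25 °C. Confirmatory titrations (2.5–80 µM) followed fluorescence at three times, and IC50 was derived from a fit including a cooperativity term n.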

[1] = DRC-2, 90', concentration 20 (unit not given)
[2] = primary screen value of the 186 hits, unit not given

Chain of P. falciparum apicoplast DNA polymerase (Pf-apPOL) (Q8ILY1 entry or part of it): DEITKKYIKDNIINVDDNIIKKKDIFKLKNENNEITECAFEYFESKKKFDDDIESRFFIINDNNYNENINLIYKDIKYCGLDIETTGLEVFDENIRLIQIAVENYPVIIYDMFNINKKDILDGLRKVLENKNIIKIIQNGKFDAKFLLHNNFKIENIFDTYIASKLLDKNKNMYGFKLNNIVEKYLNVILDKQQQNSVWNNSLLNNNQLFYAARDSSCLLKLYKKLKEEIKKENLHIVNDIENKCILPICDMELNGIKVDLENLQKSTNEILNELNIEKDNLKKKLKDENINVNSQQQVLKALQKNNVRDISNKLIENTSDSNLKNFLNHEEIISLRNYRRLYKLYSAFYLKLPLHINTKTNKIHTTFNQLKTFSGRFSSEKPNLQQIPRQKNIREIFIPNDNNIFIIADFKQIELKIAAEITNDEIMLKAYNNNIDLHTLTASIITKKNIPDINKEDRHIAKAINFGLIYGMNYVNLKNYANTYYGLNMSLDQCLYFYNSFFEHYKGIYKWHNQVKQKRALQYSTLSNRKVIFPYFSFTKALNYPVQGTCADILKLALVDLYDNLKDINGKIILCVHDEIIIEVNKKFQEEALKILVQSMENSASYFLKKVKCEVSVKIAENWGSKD

Structure (SMILES): O=C(Nc1cccc(C(=O)Nc2ccc(S(=O)(=O)[O-])c3cc(S(=O)(=O)[O-])cc(S(=O)(=O)[O-])c23)c1)Nc1cccc(C(=O)Nc2ccc(S(=O)(=O)[O-])c3cc(S(=O)(=O)[O-])cc(S(=O)(=O)[O-])c23)c1.[Na+].[Na+].[Na+].[Na+].[Na+].[Na+] [Molecule 39, O=C(Nc1cccc(c1)C(=O)Nc1ccc(c2c1c(cc(c2)S(=O)(=O)[O-])S(=O)(=O)[O-])S(=O)(=O)[O-])Nc1cccc(c1)C(=O)Nc1ccc(c2c1c(cc(c2)S(=O)(=O)[O-])S(=O)(=O)[O-])S(=O)(=O)[O-].[Na+].[Na+].[Na+].[Na+].[Na+].[Na+]]
- DNA Pol ('DNA Pol' of the 186 hits list (primary screen result), unit not given): 94
- % inhibition Apo pol 10' (DRC-1, concentration 2.5): 28.0363%
- % inhibition Apo pol 10' (DRC-1, concentration 5): 43.2303%
- % inhibition Apo pol 10' (DRC-1, concentration 10): 60.7681%
- % inhibition Apo pol 10' (DRC-1, concentration 20): 81.9365%
- % inhibition Apo pol 10' (DRC-1, concentration 40): 96.2832%
- % inhibition Apo pol 10' (DRC-1, concentration 80): 99.222%
- % inhibition Apol 90' (DRC-1, 90', concentration 2.5): -1.332%
- % inhibition Apol 90' (DRC-1, 90', concentration 5): 6.063%
- % inhibition Apol 90' (DRC-1, 90', concentration 10): 22.6686%
- % inhibition Apol 90' (DRC-1, 90', concentration 20): 56.1821%
- % inhibition Apol 90' (DRC-1, 90', concentration 40): 89.9026%
- % inhibition Apol 90' (DRC-1, 90', concentration 80): 98.7402%
- % inhibition apPOL 180' (DRC-1, concentration 2.5): -3.025%
- % inhibition apPOL 180' (DRC-1, concentration 5): 1.181%
- % inhibition apPOL 180' (DRC-1, concentration 10): 16.2132%
- % inhibition apPOL 180' (DRC-1, concentration 20): 51.6229%
- % inhibition apPOL 180' (DRC-1, concentration 40): 87.2271%
- % inhibition apPOL 180' (DRC-1, concentration 80): 98.5627%
- % inhibition Apol 40' (DRC-2, 40', concentration 20 (unit not given)): 56%
- % inhibition ApPOL 90' [1]: 56%
- % inhibition Apo pol 5' (DRC-2, 5', concentration 2.5): 12%
- % inhibition Apo pol 5' (DRC-2, 5', concentration 5): 23%
- % inhibition Apo pol 5' (DRC-2, 5', concentration 10): 41%
- % inhibition Apo pol 5' (DRC-2, 5', concentration 20): 52%
- % inhibition Apo pol 5' (DRC-2, 5', concentration 40): 59%
- % inhibition Apo pol 5' (DRC-2, 5', concentration 80): 63%
- % inhibition Apol 40' (DRC-2, 40', concentration 2.5): -11%
- % inhibition Apol 40' (DRC-2, 40', concentration 5): 4.26%
- % inhibition Apol 40' (DRC-2, 40', concentration 10): 29%
- % inhibition Apol 40' (DRC-2, 40', concentration 20): 56%
- % inhibition Apol 40' (DRC-2, 40', concentration 40): 75%
- % inhibition Apol 40' (DRC-2, 40', concentration 80): 79%
- % inhibition ApPOL 90' (DRC-2, 90', concentration 2.5): -13%
- % inhibition ApPOL 90' (DRC-2, 90', concentration 5): 1%
- % inhibition ApPOL 90' (DRC-2, 90', concentration 10): 28%
- % inhibition ApPOL 90' (DRC-2, 90', concentration 20): 56%
- % inhibition ApPOL 90' (DRC-2, 90', concentration 40): 78%
- % inhibition ApPOL 90' (DRC-2, 90', concentration 80): 83%
- % inhibition apPOL 180' (DRC-2, concentration 2.5): -3.36%
- % inhibition apPOL 180' (DRC-2, concentration 5): 7.57%
- % inhibition apPOL 180' (DRC-2, concentration 10): 31%
- % inhibition apPOL 180' (DRC-2, concentration 20): 58%
- % inhibition apPOL 180' (DRC-2, concentration 40): 80%
- % inhibition apPOL 180' (DRC-2, concentration 80): 86%
- DNA Pol (primary screen value of the library well, unit not given): 94

Structure (SMILES): COc1ccc(C=C2Oc3c(ccc4c3CN(c3ccc5c(c3)OCO5)CO4)C2=O)cc1OC [KU0199426]
- % inhibition Apo pol 10' (DRC-1, concentration 2.5): 6.7092%
- % inhibition Apo pol 10' (DRC-1, concentration 5): 10.8011%
- % inhibition Apo pol 10' (DRC-1, concentration 10): 30.1784%
- % inhibition Apo pol 10' (DRC-1, concentration 20): 49.962%
- % inhibition Apo pol 10' (DRC-1, concentration 40): 63.2111%
- % inhibition Apo pol 10' (DRC-1, concentration 80): 69.0086%
- % inhibition Apol 90' (DRC-1, 90', concentration 2.5): 9.888%
- % inhibition Apol 90' (DRC-1, 90', concentration 5): 17.5134%
- % inhibition Apol 90' (DRC-1, 90', concentration 10): 37.0525%
- % inhibition Apol 90' (DRC-1, 90', concentration 20): 55.1818%
- % inhibition Apol 90' (DRC-1, 90', concentration 40): 69.2799%
- % inhibition Apol 90' (DRC-1, 90', concentration 80): 72.5355%
- % inhibition apPOL 180' (DRC-1, concentration 2.5): 14.753%
- % inhibition apPOL 180' (DRC-1, concentration 5): 23.9693%
- % inhibition apPOL 180' (DRC-1, concentration 10): 43.333%
- % inhibition apPOL 180' (DRC-1, concentration 20): 61.4424%
- % inhibition apPOL 180' (DRC-1, concentration 40): 79.6981%
- % inhibition apPOL 180' (DRC-1, concentration 80): 86.1468%
- % inhibition Apo pol 5' (DRC-2, 5', concentration 2.5): 6.46%
- % inhibition Apo pol 5' (DRC-2, 5', concentration 5): 7.39%
- % inhibition Apo pol 5' (DRC-2, 5', concentration 10): 27%
- % inhibition Apo pol 5' (DRC-2, 5', concentration 20): 45%
- % inhibition Apo pol 5' (DRC-2, 5', concentration 40): 42%
- % inhibition Apo pol 5' (DRC-2, 5', concentration 80): 45%
- % inhibition Apol 40' (DRC-2, 40', concentration 2.5): 6%
- % inhibition Apol 40' (DRC-2, 40', concentration 5): -2.71%
- % inhibition Apol 40' (DRC-2, 40', concentration 10): 30%
- % inhibition Apol 40' (DRC-2, 40', concentration 20): 63%
- % inhibition Apol 40' (DRC-2, 40', concentration 40): 43%
- % inhibition Apol 40' (DRC-2, 40', concentration 80): 44%
- % inhibition ApPOL 90' (DRC-2, 90', concentration 2.5): 4.67%
- % inhibition ApPOL 90' (DRC-2, 90', concentration 5): -12%
- % inhibition ApPOL 90' (DRC-2, 90', concentration 10): 27%
- % inhibition ApPOL 90' (DRC-2, 90', concentration 20): 69%
- % inhibition ApPOL 90' (DRC-2, 90', concentration 40): 41%
- % inhibition ApPOL 90' (DRC-2, 90', concentration 80): 43%
- % inhibition apPOL 180' (DRC-2, concentration 2.5): -0.788%
- % inhibition apPOL 180' (DRC-2, concentration 5): -86%
- % inhibition apPOL 180' (DRC-2, concentration 10): 16%
- % inhibition apPOL 180' (DRC-2, concentration 20): 76%
- % inhibition apPOL 180' (DRC-2, concentration 40): 34%
- % inhibition apPOL 180' (DRC-2, concentration 80): 39%
- % inhibition Apo pol 5' (conc. 10, 5', DRC-2): 27%
- % inhibition ApPOL 90' (conc. 10, 90', DRC-2): 27%
- % inhibition Apo pol 5' (conc. 20, 5', DRC-2): 45%
- % inhibition Apol 40' (conc. 40, 40', DRC-2): 43%
- % inhibition Apo pol 5' (conc. 80, 5', DRC-2): 45%
- % inhibition ApPOL 90' (conc. 80, 90', DRC-2): 43%
- DNA Pol (primary screen value by plate and well): 28
- DNA Pol [2]: 28

Structure (SMILES): COCC(=O)Nc1c(-c2cccc(F)c2)nc2cc(C)ccn12 [Molecule 44]
- pIC50 (supplemental file 2, sheet IC50 nontoxic compounds, Pf-apPOL): 4.95

Structure (SMILES): CCN1C(=O)C(=Cc2cccc(OC)c2O)SC1=S [Molecule 78, CCN1C(=S)SC(=Cc2cccc(c2O)OC)C1=O]
- % inhibition Apo pol 10' (DRC-1, concentration 2.5): -5.558%
- % inhibition Apo pol 10' (DRC-1, concentration 5): -7.622%
- % inhibition Apo pol 10' (DRC-1, concentration 10): -2.049%
- % inhibition Apo pol 10' (DRC-1, concentration 20): 2.662%
- % inhibition Apo pol 10' (DRC-1, concentration 40): 14.6723%
- % inhibition Apo pol 10' (DRC-1, concentration 80): 44.8696%
- % inhibition Apol 90' (DRC-1, 90', concentration 2.5): -2.637%
- % inhibition Apol 90' (DRC-1, 90', concentration 5): -1.279%
- % inhibition Apol 90' (DRC-1, 90', concentration 10): 7.892%
- % inhibition Apol 90' (DRC-1, 90', concentration 20): 13.9946%
- % inhibition Apol 90' (DRC-1, 90', concentration 40): 28.6027%
- % inhibition Apol 90' (DRC-1, 90', concentration 80): 61.7186%
- % inhibition apPOL 180' (DRC-1, concentration 2.5): 5.183%
- % inhibition apPOL 180' (DRC-1, concentration 5): 11.9919%
- % inhibition apPOL 180' (DRC-1, concentration 10): 27.7441%
- % inhibition apPOL 180' (DRC-1, concentration 20): 33.831%
- % inhibition apPOL 180' (DRC-1, concentration 40): 51.4318%
- % inhibition apPOL 180' (DRC-1, concentration 80): 79.6969%
- % inhibition Apo pol 5' (DRC-2, 5', concentration 2.5 (unit not given)): 8%
- % inhibition ApPOL 90' [1]: 8%
- % inhibition Apo pol 5' (DRC-2, 5', concentration 2.5): 8%
- % inhibition Apo pol 5' (DRC-2, 5', concentration 5): 3.24%
- % inhibition Apo pol 5' (DRC-2, 5', concentration 10): 14%
- % inhibition Apo pol 5' (DRC-2, 5', concentration 20): 21%
- % inhibition Apo pol 5' (DRC-2, 5', concentration 40): 38%
- % inhibition Apo pol 5' (DRC-2, 5', concentration 80): 40%
- % inhibition Apol 40' (DRC-2, 40', concentration 2.5): 2.6%
- % inhibition Apol 40' (DRC-2, 40', concentration 5): -11%
- % inhibition Apol 40' (DRC-2, 40', concentration 10): 9%
- % inhibition Apol 40' (DRC-2, 40', concentration 20): 12%
- % inhibition Apol 40' (DRC-2, 40', concentration 40): 39%
- % inhibition Apol 40' (DRC-2, 40', concentration 80): 41%
- % inhibition ApPOL 90' (DRC-2, 90', concentration 2.5): -1.1%
- % inhibition ApPOL 90' (DRC-2, 90', concentration 5): -22%
- % inhibition ApPOL 90' (DRC-2, 90', concentration 10): 5.68%
- % inhibition ApPOL 90' (DRC-2, 90', concentration 20): 8%
- % inhibition ApPOL 90' (DRC-2, 90', concentration 40): 35%
- % inhibition ApPOL 90' (DRC-2, 90', concentration 80): 36%
- % inhibition apPOL 180' (DRC-2, concentration 2.5): -5.52%
- % inhibition apPOL 180' (DRC-2, concentration 5): -102%
- % inhibition apPOL 180' (DRC-2, concentration 10): -2.72%
- % inhibition apPOL 180' (DRC-2, concentration 20): -1.34%
- % inhibition apPOL 180' (DRC-2, concentration 40): 23%
- % inhibition apPOL 180' (DRC-2, concentration 80): 25%
- DNA Pol [2]: 43
- DNA Pol (primary screen value, head "DNA Pol", unit not given): 43
